# Assays:
# Assay type in all cases: physicochemical
# [1] = Density (viscometer/densimeter SVM 3000)
# Procedure: (§1) The equipment used is: • 15 mL flasks • A refrigerated cabinet at 0° C. (Panasonic—MR-154-PE) • 3 mL pipettes • An analytical balance (OHAUS Adventurer Pro AV264C) • A watch glass • A spatula • A tensiometer, brand name K100, sold by KRÜSS GmbH, Borsteler Chaussee 85, 22453 Hamburg, Germany. • A 70 mL crystallizing dish • A platinum blade • KRUSS laboratory software • A viscometer/densimeter SVM 3000—Anton Paar
# (§2) The compositions of formulae 19 to 23 and the dispersants of the prior art are tested for surface tension in order to find the wettability thereof, by using a fine plate (called a Wilhelmy plate) connected to an analytical balance. The method of the Wilhelmy blade on the K100 is used. A 70 mL crystallizing dish filled with 30 mL of product to be tested is placed in the K100. The platinum blade is arranged over the product. The KRUSS Laboratory software determines the surface tension of the liquid, via the force felt by the blade in the liquid. The viscosity and the density are also measured.
# [2] = Surface tension, Wilhelmy blade method on the K100 tensiometer
# Procedure: as §1, §2
# [3] = Viscosity (viscometer/densimeter SVM 3000)
# Procedure: as §1, §2
smiles,measurement,setting,value
"CN1CCCC1=O [NMP, N-methyl-2-pyrrolidone]",Density at 20° C.,[1],1.03 g/mL
same,Surface tension at 20° C.,[2],40 mN/m
same,Viscosity at 20° C.,[3],1.7 mm^2/s

# From patent US20190191695A1, “DISSOLVENT COMPOSITION, STABLE UNDER COLD CONDITIONS” (OLEON NV, priority 2016, published 2019)
